We go through one substance from PMC9827630, “Intra-colony venom diversity contributes to maintaining eusociality in a cooperatively breeding ant” (BMC Biology, 2023).

Where no end group is shown, it is not given here.

In data set [1] the test system is Acinetobacter baumannii ATCC 19606. Nature of the data set: Antimicrobial growth inhibition (CO-ADD). The format is cell-based. Particulars: percentage growth inhibition, absorbance at 600 nm; mean ± SEM. Here is the method:
(§1) Antimicrobial and cytotoxicity assays were performed by CO-ADD (The Community for Antimicrobial Drug Discovery, Institute for Molecular Bioscience, The University of Queensland). […] Percentage growth inhibition was calculated using negative controls (media only) and positive controls (no peptide). For the hemolysis assays, human whole blood was washed three times with 3 volumes of 0.9% NaCl and then resuspended in 0.9% NaCl to a concentration of 0.5 × 10^8 cells/mL. Cells were incubated for 1 h at 37°C with or without the peptide. After incubation, plates were centrifuged at 1000 g for 10 min to pellet cells and debris and hemolysis determined by measuring the supernatant absorbance at 405 nm.

Data set [2] relates to Escherichia coli ATCC 25922. Nature of the data set: Antimicrobial growth inhibition (CO-ADD). The format is cell-based. Particulars: percentage growth inhibition, absorbance at 600 nm; mean ± SEM. The procedure: as §1
The test system of data set [3] is Klebsiella pneumoniae ATCC 700603. Description: Antimicrobial growth inhibition (CO-ADD). The format is cell-based. Particulars: percentage growth inhibition, absorbance at 600 nm; mean ± SEM. Here is the method: as §1
In data set [4] the test system is Pseudomonas aeruginosa ATCC 27853. Description: Antimicrobial growth inhibition (CO-ADD). The data set is classed as cell-based. Particulars: percentage growth inhibition, absorbance at 600 nm; mean ± SEM. Here is the method: as §1
Data set [5] has as its system Staphylococcus aureus ATCC 43300. Description: Antimicrobial growth inhibition (CO-ADD). The format is cell-based. Here is the method: as §1
Data set [6] deals with Candida albicans ATCC 90028. Description: Antifungal growth inhibition (CO-ADD). The data set is classed as cell-based. Particulars: percentage growth inhibition, absorbance at 530 nm; mean ± SEM. Here is the method:
as §1

Data set [7] relates to Cryptococcus neoformans var. grubii H99; ATCC 208821. Description: Antifungal growth inhibition (CO-ADD). The format is cell-based. Particulars: percentage growth inhibition, difference in absorbance 600 and 570 nm after resazurin, 35°C 2 h; mean ± SEM. Here is the method: as §1
Data set [8] relates to Human embryonic kidney cells ATCC CRL-1573. Nature of the data set: Cytotoxicity assay (CO-ADD), resazurin. The data set is classed as cell-based. Particulars: percentage growth inhibition, resazurin fluorescence, 37°C 5% CO2; mean ± SEM. The procedure:
as §1

The test system of another data set is Human red blood cells. Description: Hemolysis assay (CO-ADD). The format is cell-based. Particulars: hemolysis, washed human blood 0.5 × 10^8 cells/mL in 0.9% NaCl, 1 h at 37°C, supernatant absorbance at 405 nm; mean ± SEM. The procedure: as §1
The next data set deals with HEK. Description: Ion permeability HEK. Particulars: ions listed as permeant; - = none. The data set is classed as cell-based, Human.
For another data set, the system named is F11. Description: Ion permeability F11. The data set is classed as cell-based, mouse. Particulars: ions listed as permeant; - = none.
Data set [9] has as its system Female fruit flies (D. melanogaster strain Canton-S). Description: Fruit fly injection assay (lethality, paralysis, climbing). Particulars: 5 nmol/g injected, climbing assay 5 min after injection; significant versus control. The format is in vivo, Drosophila melanogaster. The procedure:
Female fruit flies (D. melanogaster strain Canton-S) were injected four to six days post-emergence. Female flies were used because their larger size makes injection easier. Groups of eight female flies were assayed in triplicate for each dose tested. Injection needles were formed from glass capillary tubes (#3-000-203-G/X, Drummond, Birmingham, AL, USA) using a micropipette puller (Sutter Instrument Co. Model P-97), with the fine tip manually trimmed afterwards using scissors. Needles then were filled with mineral oil, connected to a Nanoliter 2000 microinjector ([…], Bensenville, IL USA) equipped with a foot pedal, and ~1 μL of peptide solution or water aspirated. Each group of flies were immobilized by cooling for approximately 2 min on ice, and then decanted on the top of the ‘injection stage’, a petri dish filled with ice. Under a dissecting microscope, each fly was carefully impaled on the lateral thorax behind the wing, and 50.6 nL of venom peptide or water was injected. After injection, each group of flies were returned to their 5 mL plastic tube at room temperature and their behavior observed.

For another data set, the system named is HAP1 cells. Nature of the data set: Cell viability assay, resazurin. The format is cell-based. Here is the method: (§2) In addition to the cytotoxicity assays performed by CO-ADD, we screened the synthetic peptides for toxicity in cell viability assays using HAP1, MM96L, and HEK293T cells. peptides were reconstituted in 100% DMSO then diluted in cell media (HAP1: IMDM (Sigma Aldrich) with 10% FBS and 1% Penicillin/Streptomycin (P/S); MM96L: RPMI (Gibco) with 10% FBS, 1% P/S and 1% GlutaMAX (Gibco); HEK293T: DMEM high glucose (Gibco), with 10% FBS and 1% P/S. Trypsinized cells ([…]) were seeded in each well of a 96-well plate. 0.01 to 1000 μM peptide was added to each well after 24 h, and the cells incubated for an additional 74 h. After incubation, the medium was aspirated from each well and 150 μL of fresh medium containing a 0.002% solution of resazurin (Sigma-Aldrich) was added to the wells and incubated for 4 h at 37 °C. The absorbance was measured at 570 nm using a microplate spectrophotometer (FLUOstar Omega, BMG Labtech, Germany). Percentage cell viability at concentrations of 10 and 100 μM peptide were compared with negative control by one-way ANOVA Dunnett’s multiple comparisons test (GraphPad Prism8).
(In general: Resazurin is reduced to fluorescent resorufin, in cell work by metabolically active cells.)

A further data set has as its system HEK293T cells. Nature of the data set: Cell viability assay, resazurin. The format is cell-based. Particulars: 100 μM peptide. Here is the method: as §2
Data set [10] concerns MM96L cells (melanoma cell line). Description: Cell viability assay, resazurin. The data set is classed as cell-based. Particulars: 100 μM peptide. Here is the method:
as §2

The subject of another data set is panel of microbes. Nature of the data set: Antimicrobial screening, summary over the panel of microbes. The data set is classed as cell-based. Particulars: all strains of the panel (for Rm54a and Rm55a: strains other than S. aureus). The procedure:
as §1

Consider LWPFLISLIPTVIDLARNL-NH2 [Rm54a], for which the “Max response ± SEM” value in [1] is 22 ± 3; in data set [2], 10 ± 1; in data set [3], 10 ± 2; in data set [4], 16 ± 1; in data set [5] (percentage growth inhibition, absorbance at 600 nm, mean ± SEM), 102 ± 1; in data set [6], 10 ± 3. The “Max response ± SEM” value in data set [7] is on record as -15 ± 2; in [8], 95 ± 0; in the data set with Human red blood cells it was 95 ± 6. The “Inhibition of S. aureus (in words)” value in data set [5] is given as “complete inhibition”. Besides, in the data set with HEK, the “ion permeability HEK” value is recorded as “Ca2+,Na+,Th+”. The “ion permeability F11” value in the data set on F11 was “Ca2+,Na+,Th+”. In data set [9], the “Motor behavior (climbing assay)” value is given as “disrupted motor behavior”. Moreover, the “Cytotoxicity to HAP cells” value in the data set on HAP1 cells is listed as “cytotoxic to HAP cells”. Moreover, in the data set on HAP1 cells (10 μM peptide, n = 3 per group), the HAP cell viability result is on record as “significantly reduced HAP cell viability”. For the same substance, the “Cytotoxicity against HEK293T cells” value in the data set with HEK293T cells was “cytotoxic against HEK293T cells”. Further, the “Cytotoxicity against MM96L cells” value in data set [10] is reported as “not the melanoma cell line MM96L”. Besides, the “Growth inhibition over the microbial strains examined” value in the data set on panel of microbes is “not affecting any of the other strains examined”.
